The results in this text go back to US7166637B2, “Hydroxyindoles, their use as inhibitors of phosphodiesterase 4, and processes for preparing them” (Elbion AG, priority 2002, dated 2007).

A word on the IC50: it is the concentration that gives 50% inhibition. The low end stands for inhibition by little substance, the high end for a need for much substance.

The test addresses PDE 4 (cytosolic fraction from human polymorphonuclear lymphocytes (PMNLs)). The experiment in a line: Inhibition of phosphodiesterase 4 (SPA assay, [3H]-cAMP substrate). In kind it is biochemical. The conditions noted are these: enzyme preparation from human PMNLs; 0.5 μM [3H]-cAMP; 37° C., 30 minutes. On the procedure:
The PDE 4 activity is determined using enzyme preparations from human polymorphonuclear lymphocytes (PMNLs).
Human blood (buffy coats) was anticoagulated with citrate. The platelet-rich plasma in the supernatant is separated from the erythrocytes and leucocytes by centrifuging at 700×g for 20 minutes at room temperature (RT). The PMNLs for the PDE 4 determination are isolated by means of a subsequent dextran sedimentation followed by a gradient centrifugation using Ficoll-Paque. After the cells have been washed twice, the erythrocytes which are still present are lysed within 6 minutes by adding 10 ml of hypotonic buffer (155 mM NH4Cl, 10 mM NaHCO3, 0.1 mM EDTA, pH=7.4) at 4° C. The PMNLs, which are still intact, are washed a further two times with PBS and lysed by ultrasonication. The supernatant obtained after centrifuging at 48 000×g at 4° C. for one hour contains the cytosolic PDE 4 fraction and is used for the PDE 4 measurements.
The phosphodiesterase activity is measured using a modified Amersham Pharmacia Biotech method, i.e. an SPA (scintillation proximity assay) assay. The reaction mixtures contain buffer (50 mM tris-HCl (pH 7.4), 5 mM MgCl2, 100 μM cGMP), varying concentrations of the inhibitors, and the corresponding enzyme preparation. The reaction is started by adding the substrate, i.e. 0.5 μM [^3H]-cAMP. The final volume is 100 μl. Test substances are prepared as stock solutions in DMSO. The concentration of DMSO in the reaction mixture is 1% v/v. This DMSO concentration has no effect on PDE activity. After the reaction has been started by adding the substrate, the samples are incubated at 37° C. for 30 minutes. The reaction is stopped by adding a defined quantity of SPA beads and the samples are measured in a beta counter after one hour. The nonspecific enzyme activity (i.e. the blank) is determined in the presence of 100 μM rolipram and subtracted from the test values. The incubation mixtures for the PDE 4 assay contain 100 μM cGMP in order to inhibit any contamination of PDE 3 which may be present.
The molecule `O=C(Nc1c(Cl)cncc1Cl)C(=O)c1cn(Cc2ccc(Cl)cc2)c2c(O)cccc12` [Compound 2, N-(3,5-dichloropyrdin-4-yl)-[1-(4-chlorobenzyl)-7-hydroxyindol-3-yl]glyoxylamide] displayed an IC50 of 2 nM.
To `O=C(Nc1c(Cl)cncc1Cl)C(=O)c1cn(Cc2ccc(F)cc2)c2cccc(O)c12` [Compound 4] belongs 938 nM.
To `O=C(Nc1c(Cl)cncc1Cl)C(=O)c1cn(Cc2ccc(F)cc2)c2c(O)cccc12` [Compound 5] belongs 15 nM.
Then `O=C(Nc1c(Cl)cncc1Cl)C(=O)c1cn(Cc2ccccc2F)c2c(O)cccc12` [Compound 6], with 1 nM; and `O=C(Nc1c(Cl)cncc1Cl)C(=O)c1cn(Cc2cccc([N+](=O)[O-])c2)c2c(O)cccc12` [Compound 7], with 2 nM; and `O=C(Nc1c(Cl)cncc1Cl)C(=O)c1cn(Cc2c(F)cccc2F)c2c(O)cccc12` [Compound 8], with 2 nM.
Consider `CC(C)Cn1cc(C(=O)C(=O)Nc2c(Cl)cncc2Cl)c2cccc(O)c21` [Compound 15], for which the IC50 worked out at 20 nM.
To `O=C(Nc1c(Cl)cncc1Cl)C(=O)c1cn(CC2CC2)c2c(O)cccc12` [Compound 16] belongs 30 nM; to `O=C(Nc1c(Cl)cccc1Cl)C(=O)c1cn(Cc2ccc(F)cc2)c2c(O)cccc12` [Compound 17], 141 nM.
To `O=C(Nc1c(Cl)cncc1Cl)C(=O)c1cn(Cc2ccc(O)cc2)c2c(O)cccc12` [Compound 22] belongs 3 nM.
